{"source": "paper PMC8360061", "about": "“Search for the Active Ingredients from a 2‐Aminothiazole DMSO Stock Solution with Antimalarial Activity” (Chemmedchem, 2021)", "key": {"[1]": {"tested_on": "Plasmodium falciparum drug-sensitive NF54", "assay": "Antimalarial assay, [3H]hypoxanthine incorporation", "format": "cell-based", "conditions": "Plasmodium falciparum", "description": "(§1) Due to the nature of the study, some decomposition samples w ere only tested once and thus, for some formal standard error, […]\nFor the final purified compounds, replicates were measured and standard deviation was calculated at least from two replicates.\n1.2 General Procedure for Antimalarial Assay\nPlasmodium falciparum drug-sensitive NF54 (airport strain from The Netherlands, provided by F. Hoffmann-La Roche Ltd) was cultivated in a variation of the medium consisting of RPMI 1640 supplemented with 0.5% ALBUMAX® II, 25 mM Hepes, 25 mM NaHCO3 (pH 7.3), 0.36 mM hypoxanthine, and 100 μg/mL neomycin, as previously described.[4,5] Human erythrocytes served as host cells.\nCultures were maintained in an atmosphere of 3% O2, 4% CO2, and 93% N2 in humidified modular chambers at 37 °C. Compounds were dissolved in MeOH (10 mM), diluted in hypoxanthine-free culture medium and titrated in duplicates over a 64-fold range in 96 well plates. Infected erythrocytes (1.25% final hematocrit and 0.3% final parasitemia) were added into the wells. After 48 h incubation, 0.25 μCi of [3H]hypoxanthine was added per well and plates were incubated for an additional 24 h. Parasites were harvested onto glass-fiber filters and radioactivity was counted using a Betaplate liquid scintillation counter (Wallac, Zurich). Chloroquine […]\nThe results were recorded and expressed as a percentage of the untreated controls. Fifty percent inhibitory concentrations (IC50) were estimated by linear interpolation.[6] […]"}, "PfIspE": {"molecular_target": "PfIspE (Plasmodium falciparum, UniProt Q8I470)", "sequence (Q8I470 entry or part of it)": "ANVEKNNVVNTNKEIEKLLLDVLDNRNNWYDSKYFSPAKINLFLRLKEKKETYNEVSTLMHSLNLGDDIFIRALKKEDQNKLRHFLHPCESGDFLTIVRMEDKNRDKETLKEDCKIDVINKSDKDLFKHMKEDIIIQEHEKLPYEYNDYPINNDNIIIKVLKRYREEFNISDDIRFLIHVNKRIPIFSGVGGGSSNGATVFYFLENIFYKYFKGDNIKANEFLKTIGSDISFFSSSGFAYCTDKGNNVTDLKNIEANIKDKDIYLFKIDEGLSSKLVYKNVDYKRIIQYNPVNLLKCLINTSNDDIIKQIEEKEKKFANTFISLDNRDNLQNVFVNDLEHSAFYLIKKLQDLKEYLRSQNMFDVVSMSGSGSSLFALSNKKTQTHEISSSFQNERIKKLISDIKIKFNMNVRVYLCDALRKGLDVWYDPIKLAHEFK", "assay": "PfIspE enzymatic assay (coupled to PK/LDH, NADH oxidation at 340 nm)", "format": "biochemical", "description": "(§2) Firstly, we performed a temperature‐dependent decomposition study of compound 1 at 10 mM concentration in DMSO at room temperature (RT), +4 °C and −20 °C (SI, Section 2.3). […] Besides visual inspection of the colour changes of the test sample (see Table 2), the decomposition was monitored by HRMS and NMR spectroscopy. […] Furthermore, all three samples were tested for their inhibitory activity against PfIspE after the incubation period. […] In the IspE assay, the activity of the target enzyme is coupled to the oxidation of NADH (which can be followed spectrophotometrically at 340 nm) via a cascade of the auxiliary enzymes pyruvate kinase and lactate dehydrogenase (PK/LDH).[10] […] Three samples of compound 1 were tested in PK/LDH assay (Table 2).\n(§3) Another approach to address this issue is to perform the IspE assay with one or several orthologues of PfIspE. […] The IspE assay setup was identical for both Pf and EcIspE orthologs except for the target enzyme used. One of the setup requirements was that the enzymatic activity of the auxiliary enzymes PK/LDH exceeded the activity of the target enzyme IspE not less than a factor of ten.[10] We investigated, if the inhibition of the auxiliary enzymes may substantially influence the IC50 values obtained from the coupled IspE assay.\n(§4) 1.1 General Procedure for Enzymatic Assay\n(§5) The cloning, expression and purification of Plasmodium falciparum[1] and Escherichia coli[2,3] and their subsequent assays followed the previously reported procedures .[1] In some specified cases, the tested compound was dissolved in methanol or acetonitrile for the assay .\nas §1\n(§6) For the final purified compounds, replicates were measured and standard deviation was calculated at least from two replicates. […]\n(§7) 2.) Decomposition Study Procedure\n(§8) All reagents and solvents were of commercial quality and used without further purification."}, "EcIspE": {"molecular_target": "T1, EcIspE (Escherichia coli, UniProt P62615)", "T1 construct": "made in house", "T1 sequence (P62615 whole entry)": "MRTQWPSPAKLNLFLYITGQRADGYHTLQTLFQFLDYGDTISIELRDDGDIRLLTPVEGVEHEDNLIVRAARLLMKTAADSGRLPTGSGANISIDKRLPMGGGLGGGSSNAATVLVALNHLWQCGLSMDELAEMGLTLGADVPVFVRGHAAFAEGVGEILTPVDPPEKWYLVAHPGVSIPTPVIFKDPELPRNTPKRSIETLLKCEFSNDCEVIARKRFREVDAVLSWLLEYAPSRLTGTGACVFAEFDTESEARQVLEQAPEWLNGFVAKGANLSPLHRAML", "assay": "EcIspE enzymatic assay (coupled to PK/LDH)", "format": "biochemical", "conditions": "fractions of second purification", "text": "as §3, §4, §5, §1, §6, §7, §8\nLow resolution mass analytics and purity controls were carried out using an Ultimate 3000-ISQ liquid-chromatography mass spectrometry (LCMS) system (Thermo Fisher […]"}, "[2]": {"assay": "Decomposition study of stock solutions (HRMS, NMR)", "format": "physicochemical", "conditions": "10 mM DMSO stock at RT, after one day", "description": "Firstly, we performed a temperature‐dependent decomposition study of compound 1 at 10 mM concentration in DMSO at room temperature (RT), +4 °C and −20 °C (SI, Section 2.3). After seven days, 64 % of the sample stored at RT had decomposed (SI, Table S1). Besides visual inspection of the colour changes of the test sample (see Table 2), the decomposition was monitored by HRMS and NMR spectroscopy. […] Furthermore, all three samples were tested for their inhibitory activity against PfIspE after the incubation period. […] This fact correlated with the degree of chemical transformation of compound 1 (Table S1). In the IspE assay, the activity of the target enzyme is coupled to the oxidation of NADH (which can be followed spectrophotometrically at 340 nm) via a cascade of the auxiliary enzymes pyruvate kinase and lactate dehydrogenase (PK/LDH).[10] Therefore, we next confirmed, whether the effects observed in the IspE assay are due to inhibition of the target enzyme or of the auxiliary enzymes. Three samples of compound 1 were tested in PK/LDH assay (Table 2).\nSecondly, we analysed if spontaneous chemical transformation of compound 1 may depend on the solvent used for the preparation of its stock solutions. We incubated 10 mM stock preparations of compound 1 in DMSO, acetonitrile (ACN) and methanol (MeOH) at RT. Aliquots were taken during 16 days of incubation and tested against the enzyme PfIspE (Table 3). […] For further decomposition incubation of compound 1, only DMSO was used as solvent.\n2.3 Temperature-Dependent Study\nCompound 1 was dissolved in DMSO to afford 10 mM stock solution, in the scale of 3.65 mg in 1 mL. Three aliquots were prepared and one each was stored inside a light -protecting box at different temperatures: room temperature (RT), +4 °C and –20 °C. Samples were only taken to RT for the minimum time required for sampling. Samples were further d iluted with acetonitrile to 10 µM (1:1000) for HRMS analysis. For calibration, a fresh stock solution of the compound 1 was prepared shortly before the analysis. The concentration range used for the calibration was from 10 µM to 20 nM, including 10 samples with 1:1 dilutions starting from the highest concentration (Appendix I). In all of the calibration points and samples, diphenhydramine ( m/z: 256.16907 [M+H]+) was included as an internal standard at the concentration of 500 nM. The results were analysed using Thermo Xcalibur Quan Browser. Similarly, three NMR samples of compound 1 were prepared in DMSO-d6 and each stored at different temperatures; RT, +4 °C and –20 °C, (Figure S8).\nTable S1. Summary of the decomposition of compound 1 at different temperatures with the corresponding enzymatic activities measured after three months.\nThe Percentage of Compound 1 Left After Degradation after 3 months of decomposition[b] Temperature Day 7 1 month 2 months PfIspE IC50 EcIspE IC50 PK/LDH IC50 […]\n[a] [b] Errors given as formal standard error. n.d.: not determined, PK/LDH: pyruvate kinase and lactate dehydrogenase, Pf: Plasmodium falciparum, Ec: Escherichia coli.\nFigure S7. The HRMS recorded for the samples submitted to the enzyme assay after 3 months of decomposition with the corresponding colour differences. […]\n2.4 Solvent-Dependent Study\nAs in the Section 2.3, stock solutions of compound 1 were prepared in DMSO, ACN and MeOH and stored at RT for 16 days in a box protected from light . Samples were collected during this time and the enzymatic activity was analysed for them as in main text, Table […]\ncompound 1 for ACN or MeOH was detectible (Figures S11–12). Similarly, the old samples of compound 1 used for enzyme and cell assays were analysed with HRMS (Figure S13). Additionally, NMR sample in MeOH was prepared and measured over time while stored at RT. As a follow-up experiment, the stability of compound 1 was determined for its 10 mM stock solution in Tris-HCl (pH 7.6) with and without 5% DMSO and Cyrene™ with HRMS (Figure S16–18). […]"}, "[3]": {"molecular_target": "PK/LDH (pyruvate kinase and lactate dehydrogenase)", "assay": "PK/LDH auxiliary enzyme assay", "format": "biochemical", "conditions": "SFC-separated compound, dissolved in methanol shortly before the assay", "description": "as §2, §4, §5, §1, §6, §7, §8\nLow resolution mass analytics and purity controls were carried out using an Ultimate 3000-ISQ liquid-chromatography mass spectrometry (LCMS) system (Thermo Fisher Scientific, Dreieich, Germany) consisting of a Dionex UltiMate pump, an autosampler, DAD detector and an ESI quadrupole mass spectrometer. NMR spectra were recorded on a Bruker AV 500 or Ascend 700 (1H, 500 MHz or 700 MHz; 13C, 126 MHz or 175 MHz; 19F, 470 MHz) spectrometer. All spectra were measured in DMSO -d6, methanol-d4, acetone-d6 or acetonitrile-d3 to which reported"}, "[4]": {"conditions": "fractions of second purification (DMSO, RT, five days), dissolved in ACN"}, "[5]": {"conditions": "fractions of second purification (DMSO, RT, five days), dissolved in MeOH"}}, "note": "Read-outs that look alike come from different tables or passages of the source.", "data": [{"smiles": "CCN(CC)CCCC(C)Nc1ccnc2cc(Cl)ccc12", "note": "(centres unmarked) [Chloroquine, reference compound]", "values": [{"measurement": "IC50", "setting": "[1]; NF54, read-out: PfNF54 IC50", "value": "3.1 ± 0.8", "unit": "ng/mL"}]}, {"smiles": "Cc1cc(-c2csc(Nc3ccccc3C(F)(F)F)n2)c(C)n1CC1CCCO1", "note": "(centres unmarked) [Compound 4, 4-(2,5-Dimethyl-1-((tetrahydrofuran-2-yl)methyl)-1H-pyrrol-3-yl)-N-(2-(trifluoromethyl)phenyl)thiazol-2-amine]", "values": [{"measurement": "IC50", "setting": "PfIspE; fractions of first prep. HPLC purification (DMSO, RT, 2.5 weeks), dissolved in DMSO as 1 mg/mL", "value": "> 1190", "unit": "µM"}, {"measurement": "IC50", "setting": "PfIspE; [4]", "value": "> 1190", "unit": "µM"}, {"measurement": "IC50", "setting": "PfIspE; [5]", "value": 112, "unit": "µM"}, {"measurement": "IC50", "setting": "EcIspE; dissolved in ACN", "value": "> 1190", "unit": "µM"}, {"measurement": "IC50", "setting": "EcIspE; dissolved in MeOH", "value": 292, "unit": "µM"}, {"measurement": "decomposition in DMSO at RT: dimerisation (HRMS, in words)", "setting": "[2]", "value": "no dimerisation"}]}, {"smiles": "CCn1c(C)cc(-c2csc(Nc3ccccc3OC)n2)c1C", "note": "[Compound 2, 4-(1-Ethyl-2,5-dimethyl-1H-pyrrol-3-yl)-N-(2-methoxyphenyl)thiazol-2-amine]", "values": [{"measurement": "IC50", "setting": "PfIspE; first screening, from a single measurement, not reproducible later", "value": 191, "unit": "µM"}, {"measurement": "IC50", "setting": "PfIspE; [4]", "value": "> 1530", "unit": "µM"}, {"measurement": "IC50", "setting": "PfIspE; [5]", "value": "> 1530", "unit": "µM"}, {"measurement": "IC50", "setting": "PfIspE; fresh batch, freshly prepared stock solution", "value": "> 500", "unit": "µM"}, {"measurement": "IC50", "setting": "EcIspE; dissolved in ACN", "value": "> 1530", "unit": "µM"}, {"measurement": "IC50", "setting": "EcIspE; dissolved in MeOH", "value": "> 1530", "unit": "µM"}, {"measurement": "decomposition in DMSO at RT: dimerisation (HRMS, in words)", "setting": "[2]", "value": "dimerising mainly into the predicted N−N dimers"}]}, {"smiles": "C[C@H]1[C@H](OC(=O)CCC(=O)O)O[C@@H]2O[C@@]3(C)CC[C@H]4[C@H](C)CC[C@@H]1[C@@]24OO3", "note": "[artesunate, reference compound]", "values": [{"measurement": "IC50", "setting": "[1]; NF54, controls of the antimalarial assay, read-out: PfNF54 IC50", "value": "4 ± 1.7", "unit": "ng/mL"}]}, {"smiles": "CCn1c(C)cc(-c2csc(N(c3ccccc3C(F)(F)F)N(C3=NC(=C4C=C(C)[N+](CC)=C4C)CS3)c3ccccc3C(F)(F)F)n2)c1C", "note": "[DP2]", "values": [{"measurement": "IC50", "setting": "PfIspE; SFC-separated compound, dissolved in methanol shortly before the assay", "value": "59 ± 4", "unit": "µM"}, {"measurement": "IC50", "setting": "[3]", "value": "37 ± 4", "unit": "µM"}, {"measurement": "IC50", "setting": "[1]; NF54, 72 h, SFC-separated compound, dissolved in methanol shortly before the assay, 72 hours, highest concentration tested 20 μM, read-out: PfNF54 IC50", "value": "2.1 ± 0.2", "unit": "µM"}]}, {"smiles": "C=CCn1c(C)cc(-c2csc(Nc3ccccc3C(C)C)n2)c1C", "note": "[Compound 3, 4-(1-Allyl-2,5-dimethyl-1H-pyrrol-3-yl)-N-(2-isopropylphenyl)thiazol-2-amine]", "values": [{"measurement": "IC50", "setting": "PfIspE; [4]", "value": "> 1420", "unit": "µM"}, {"measurement": "IC50", "setting": "PfIspE; [5]", "value": "> 1420", "unit": "µM"}, {"measurement": "IC50", "setting": "EcIspE; dissolved in ACN", "value": "> 1420", "unit": "µM"}, {"measurement": "IC50", "setting": "EcIspE; dissolved in MeOH", "value": "> 1420", "unit": "µM"}, {"measurement": "decomposition in DMSO at RT: dimerisation (HRMS, in words)", "setting": "[2]", "value": "dimerising mainly into the predicted N−N dimers"}]}]}
